What was measured:
Experiment in all cases: Agar diffusion antimicrobial test, MIC determination
Format in all cases: cell-based
[1] = test system: Pseudomonas aeruginosa CIP 82.1118; conditions: P. aeruginosa
Protocol: (§1) The culture medium at pH 6, pH 7 and pH 8, inoculated beforehand with the test strains, is poured into Petri dishes, with one pH and one strain per dish. After solidification, 100 μl are deposited for each of the concentrations of the test substance, as well as a solvent control and a positive control. After incubation, the inhibition diameter is measured after diffusion of the test product into the agar, and there is deduced therefrom the minimum bacteriostatic concentration (MIC), which is the lowest concentration of product inhibiting the multiplication of the microbes. The test strains are the following: • Aspergillus niger IP 1431.83, • Candida albicans IP 48.72, • Enterococcus hirae CIP 58.55, • Staphylococcus aureus CIP 4.83, • Burkholdena cepacia CIP 103924, • Pseudomonas aeruginosa CIP 82.1118. For each strain, 120 ml of each of the three Mueller Hinton media pH 6, pH 7 and pH 8 are inoculated with 1.2 ml of each suspension of microbe having a titre of 10^7 CFU/ml in order to obtain a titre equal to 10^5 CFU/ml. 15 ml are poured into each dish, with one dish per medium and per strain. After solidification, three steel cylinders are placed at the surface of each dish. 100 mg (approximately) of the powder consisting of the test alkyl glycoside are taken up in 1 ml of methanol (solution A at 10%). Next, the concentration range is prepared as described below: • Solution B1 at 1%: 300 μl of solution A+2.7 ml of sterile water, • Solution B2 at 0.5%: 300 μl of solution A+5.7 ml of sterile water, • Solution B3 at 0.1%: 1 ml of solution B1+9 ml of sterile water, • Solution B4 at 0.05%: 1 ml of solution B2+9 ml of sterile water. Only solutions B2, B3 and B4 are tested during the trial. 100 μl (pH 6, pH 7 and pH 8) of the following solutions are introduced into each cylinder: • Methanol control (prepared for each strain at pH 7), • Solution B4 at 0.05%, • Solution B3 at 0.1%, • Solution B2 at 0.5%. Incubation at 37° C.±1° C. for 24 hours (48 h for Enterococcus hirae). The inhibition of growth of the microbes leads to measurement, using a vernier caliper, in millimeters, of an inhibition diameter after diffusion of the test product into the agar. The minimum bacteriostatic concentration (MIC) is given by the lowest concentration of product which inhibits the multiplication of the microbes. In the case where the highest concentration ([…]) is not active, this is noted (>500). The tests were carried out on various strains at pH 7, for alkyl glycoside concentrations equal to 0.05%, 0.1% and 0.5% by weight.

[2] = test system: Enterococcus hirae CIP 58.55; conditions: E. hirae
Protocol: as §1

[3] = test system: Aspergillus niger IP 1431.83; conditions: A. niger
Protocol: as §1

[4] = test system: Candida albicans IP 48.72; conditions: C. albicans
Protocol: as §1

[5] = test system: Burkholdena cepacia CIP 103924; conditions: B. cepacia
Protocol: as §1

[6] = test system: Staphylococcus aureus CIP 4.83; conditions: S. aureus
Protocol: as §1

MIC ([1]; pH 7) [µg/mL]	MIC ([1]; pH 7, value in brackets) [µM]	MIC ([2]; pH 7) [µg/mL]	MIC ([2]; pH 7, value in brackets) [µM]	MIC ([3]; pH 7) [µg/mL]	MIC ([3]; pH 7, value in brackets) [µM]	MIC ([4]; pH 7) [µg/mL]	MIC ([4]; pH 7, value in brackets) [µM]	MIC ([5]; pH 7) [µg/mL]	MIC ([5]; pH 7, value in brackets) [µM]	MIC ([6]; pH 7) [µg/mL]	MIC ([6]; pH 7, value in brackets) [µM]	Structure (SMILES)
> 500	> 1810	50	181	50	181	100	362	> 500	> 1810	50	181	CCCCCCCCO[C@H]1O[C@@H](C)[C@@H](O)[C@@H](O)[C@@H]1O [Fuc-8, octyl beta-L-fucoside]
> 500	> 1500	50	150	50	150	> 500	> 1500	> 500	> 1500	50	150	CCCCCCCCCCCCO[C@H]1O[C@@H](C)[C@@H](O)[C@@H](O)[C@@H]1O [Fuc-12, dodecyl beta-L-fucoside]
100	362	50	181	50	181	100	362	100	362	50	181	CCCCCCCCOC1O[C@@H](C)[C@H](O)[C@@H](O)[C@H]1O (stereo partly drawn) [Rha-8, octyl L-rhamnoside]
50	150	50	150	50	150	50	150	100	301	50	150	CCCCCCCCCCCCOC1O[C@@H](C)[C@H](O)[C@@H](O)[C@H]1O (stereo partly drawn) [Rha-12, dodecyl L-rhamnoside]

Reference: patent US9232793B2, “Methods of inhibiting microbial growth using deoxyaldohexoses” (LVMH Recherche, priority 2008, dated 2016)
